Experimental data from PubChem BioAssay (NCI).
Several values for one entry are separate records, joined by “and”; a condition that tells them apart may be missing. Equal entries are not always repeated.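 How tested: cells in 96-well plates exposed to compound for 48 hours at five concentrations. GI50: concentration for 50% inhibition of growth. TGI marks complete inhibition of growth.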

Legend:
Test in all cases: growth of human tumour cells (NCI), 48 h
[1] = test system: LOX IMVI melanoma
[2] = test system: DU-145 prostate
[3] = test system: CAKI-1 renal
[4] = test system: BT-549 breast
[5] = test system: OVCAR-5 ovarian
[6] = test system: SK-MEL-28 melanoma
[7] = test system: HOP-92 NSCLC
[8] = test system: MDA-N
[9] = test system: HL-60(TB) leukemia
[10] = test system: COLO 205 colon
[11] = test system: HCC-2998 colon
[12] = test system: SF-295 CNS
[13] = test system: UO-31 renal
[14] = test system: OVCAR-8 ovarian
[15] = test system: MALME-3M melanoma
[16] = test system: MDA-MB-435
[17] = test system: U251 CNS
[18] = test system: NCI-H23 lung

SMILES	TGI [1] [µM]	TGI [2] [µM]	TGI [3] [µM]	TGI [4] [µM]	TGI [5] [µM]	TGI [6] [µM]	TGI [7] [µM]	TGI [8] [µM]	TGI [9] [µM]	TGI [10] [µM]	GI50 [11]	TGI [11] [µM]	TGI [12] [µM]	TGI [13] [µM]	TGI [14] [µM]	GI50 [15]	TGI [15] [µM]	TGI [16] [µM]	TGI [17] [µM]	TGI [18] [µM]
Cc1ccc(/C=C2/N=C(N/N=C\C(O)C(O)C(O)CO)NC2=O)cc1 (centres undefined)	> 100	> 100	> 100	> 100	> 100	> 100	> 100	> 100	> 100	> 100	> 100 µM and 30.9 µM	> 100	> 100	> 100	> 100	> 100 µM and 42.1 µM	> 100	> 100	> 100	
C=C(Cl)/C(=C\Cl)CCC(Cl)C(C)C (centres undefined)	> 100	> 100	> 100	> 100	> 100	> 100	> 100	> 100	> 100	> 100		> 100	> 100	> 100			> 100	> 100	> 100	> 100
COc1ccc(C2C(C#N)=C(S)N(C3OC(COC(C)=O)C(OC(C)=O)C(OC(C)=O)C3OC(C)=O)C(C)=C2C(C)=O)cc1 (centres undefined)	> 100	> 100	> 100	> 100	> 100	> 100	> 100	> 100	> 100	> 100		> 100	> 100	> 100			> 100	> 100	> 100	> 100
COC1=N[C@H](C(C)C)C(OC)=N[C@H]1Cc1ccc(C[C@@H]2N=C(OC)[C@@H](C(C)C)N=C2OC)s1	> 100	> 100	> 100	> 100	77.9	> 100	> 100	> 100		> 100		> 100	> 100	> 100	> 100		> 100	> 100	70.5	72.9
CC(C)=NNc1snnc1C(N)=O	> 100	> 100	> 100	> 100	> 100	> 100		> 100	> 100	> 100		> 100	> 100	> 100	> 100		> 100	> 100	> 100	> 100
COc1ccc(/C=C2\C[C@H]3[C@@H]4CC=C5C[C@@H](OC(C)=O)CC[C@]5(C)[C@H]4CC[C@]3(C)\C2=N\O)cc1OC	> 100	> 100	> 100	> 100	> 100	> 100	> 100	> 100	> 100	27.1		> 100	> 100	91.6	> 100		> 100	> 100		> 100
